The nature of this data set: Phase I clinical trial, pharmacokinetics of loxoprofen sodium eye drops. Particulars: human, in vivo, topical or ocular; for AUC(0-t): read-out: Average AUC0-t. Here is the method:
loxoprofen sodium eye drops: eye drops of different concentrations were prepared according to Example 1; and
2. Research methods: single-center, randomized, double-blind, single and multiple administration dosage escalation designs were used to explore the safety, tolerability and pharmacokinetic characteristics of loxoprofen sodium eye drops. Single administration includes dosages of 0.025 mg (a concentration of 0.5 mg/ml), 0.05 mg (a concentration of 1 mg/ml), 0.1 mg (a concentration of 2 mg/ml), and 0.2 mg (a concentration of 4 mg/mL), with an administration method of once a day, one drop each; and multiple administration includes dosages of 0.05 mg, 0.1 mg, and 0.2 mg, with an administration method of four times a day, one drop each.

Like-named read-outs stand apart in the source and are kept apart here.

For the compound `CC(C(=O)O)c1ccc(CC2CCCC2=O)cc1` (stereo not shown) [loxoprofen], the Cmax is, setting by setting: (0.05 mg, multiple administration (four times a day)) 2.66 ± 0.6 ng/mL; (0.1 mg, multiple administration (four times a day)) 4.22 ± 1.79 ng/mL; (0.1 mg, single administration) 3.69 ± 0.88 ng/mL; (0.2 mg, multiple administration (four times a day)) 9.46 ± 3.73 ng/mL; (0.2 mg, single administration) 8.73 ± 5.19 ng/mL. Besides, the AUC(0-t) amounted to 0.47 ± 0.43 ng·h/mL (0.05 mg, multiple administration (four times a day), 0.05 mg); 2.08 ± 1.56 ng·h/mL (0.1 mg, multiple administration (four times a day), 0.1 mg); 1.71 ± 0.99 ng·h/mL (0.1 mg, single administration, 0.1 mg); 8.33 ± 4.4 ng·h/mL (0.2 mg, multiple administration (four times a day), 0.2 mg); 6.82 ± 6.3 ng·h/mL (0.2 mg, single administration, 0.2 mg). Further, the time of peak concentration (Tmax) amounted to 12 min (multiple administration (four times a day), 0.05 mg); 12 min (multiple administration (four times a day), 0.1 mg); 12 min (multiple administration (four times a day), 0.2 mg).

Broadly, the Cmax is the peak of the concentration-time curve. The term Tmax denotes the time from dosing to the highest level.

Values taken from US20240315966A1, “COMPOSITION CONTAINING LOXOPROFEN SODIUM” (GUANGZHOU OCUSUN OPHTHALMIC BIOTECHNOLOGY CO., LTD., priority 2021, published 2024).
